pEC50: −log10 of the molar value.
Assay: Inhibition of deoxycytidine kinase-mediated arabinoside C-induced cytotoxicity

With `Nc1nc(=O)n([C@H]2CC[C@H](NC(=O)c3cccc(-c4ccc(Cl)cc4)c3)C2)cc1F` [N-((1S,3S)-3-(4-amino-5-fluoro-2-oxopyrimidin-1(2H)-yl)cyclopentyl)-4'-chlorobiphenyl-3-carboxamide] the pEC50 was 6.57.

For `N#Cc1ccc(-c2cccc(S(=O)(=O)N[C@H]3CC[C@H](n4cc(F)c(N)nc4=O)C3)c2)cc1` [N-((1S,3S)-3-(4-amino-5-fluoro-2-oxopyrimidin-1(2H)-yl)cyclopentyl)-4'-cyanobiphenyl-3-sulfonamide], the pEC50 was 6.41.

In the case of `Cc1ccc(-c2cccc(S(=O)(=O)N[C@H]3CC[C@H](n4cc(F)c(N)nc4=O)C3)c2)cc1` [N-((1S,3S)-3-(4-amino-5-fluoro-2-oxopyrimidin-1(2H)-yl)cyclopentyl)-4'-methylbiphenyl-3-sulfonamide], the pEC50 was 6.30.

For `Cc1cc(Cl)ccc1-c1cccc(S(=O)(=O)N[C@H]2CC[C@H](n3cc(F)c(N)nc3=O)C2)c1` [N-((1S,3S)-3-(4-amino-5-fluoro-2-oxopyrimidin-1(2H)-yl)cyclopentyl)-4'-chloro-2'-methylbiphenyl-3-sulfonamide], the pEC50 was 6.54.

Molecule `CS(=O)(=O)c1ccc(-c2cccc(S(=O)(=O)N[C@H]3CC[C@H](n4cc(F)c(N)nc4=O)C3)c2)cc1` [N-((1S,3S)-3-(4-amino-5-fluoro-2-oxopyrimidin-1(2H)-yl)cyclopentyl)-4'-(methylsulfonyl)biphenyl-3-sulfonamide] has a pEC50 of 5.74.

Molecule `Nc1nc(=O)n([C@H]2CC[C@H](NS(=O)(=O)c3cccc(Br)c3)C2)cc1F` [N-((1S,3S)-3-(4-amino-5-fluoro-2-oxopyrimidin-1(2H)-yl)cyclopentyl)-3-bromobenzenesulfonamide] has a pEC50 of 5.55.

In the case of `Nc1nc(=O)n([C@H]2CC[C@H](NS(=O)(=O)c3ccc(Br)cc3)C2)cc1F` [N-((1S,3S)-3-(4-amino-5-fluoro-2-oxopyrimidin-1(2H)-yl)cyclopentyl)-4-bromobenzenesulfonamide], the pEC50 was 4.96.

Work on `COc1ccc(-c2cccc(S(=O)(=O)N[C@H]3CC[C@H](n4cc(F)c(N)nc4=O)C3)c2)cc1` [N-((1S,3S)-3-(4-amino-5-fluoro-2-oxopyrimidin-1(2H)-yl)cyclopentyl)-4'-methoxybiphenyl-3-sulfonamide] yielded a pEC50 of 6.52.

`Cc1cc(Cl)ccc1-c1cccc(C(=O)N[C@H]2CC[C@H](n3cc(F)c(N)nc3=O)C2)c1` [N-((1S,3S)-3-(4-amino-5-fluoro-2-oxopyrimidin-1(2H)-yl)cyclopentyl)-4'-chloro-2'-methylbiphenyl-3-carboxamide] showed a pEC50 of 6.77.

For `Nc1nc(=O)n([C@H]2CC[C@H](NC(=O)c3cccc(-c4cccc(Cl)c4)c3)C2)cc1F` [N-((1S,3S)-3-(4-amino-5-fluoro-2-oxopyrimidin-1(2H)-yl)cyclopentyl)-3'-chlorobiphenyl-3-carboxamide], the pEC50 was 6.74.

Work on `Nc1nc(=O)n([C@H]2CC[C@H](NS(=O)(=O)c3cccc(-c4ccccc4Cl)c3)C2)cc1F` [N-((1S,3S)-3-(4-amino-5-fluoro-2-oxopyrimidin-1(2H)-yl)cyclopentyl)-2'-chlorobiphenyl-3-sulfonamide] yielded a pEC50 of 6.37.

`Nc1nc(=O)n([C@H]2CC[C@H](NS(=O)(=O)c3ccc([N+](=O)[O-])cc3)C2)cc1F` [N-((1S,3S)-3-(4-amino-5-fluoro-2-oxopyrimidin-1(2H)-yl)cyclopentyl)-4-nitrobenzenesulfonamide] showed a pEC50 of 4.80.

In the case of `NC(=O)c1ccc(-c2cccc(S(=O)(=O)N[C@H]3CC[C@H](n4cc(F)c(N)nc4=O)C3)c2)cc1` [3'-(N-((1S,3S)-3-(4-amino-5-fluoro-2-oxopyrimidin-1(2H)-yl)cyclopentyl)sulfamoyl)biphenyl-4-carboxamide], the pEC50 was 5.23.

Work on `Nc1nc(=O)n([C@H]2CC[C@H](NS(=O)(=O)c3cccc(-c4ccc(Cl)cc4)c3)C2)cc1F` [N-((1S,3S)-3-(4-amino-5-fluoro-2-oxopyrimidin-1(2H)-yl)cyclopentyl)-4'-chlorobiphenyl-3-sulfonamide] yielded a pEC50 of 6.62.

With `Nc1nc(=O)n([C@H]2CC[C@H](NS(=O)(=O)c3cccc(-c4ccc(Cl)cc4Cl)c3)C2)cc1F` [N-((1S,3S)-3-(4-amino-5-fluoro-2-oxopyrimidin-1(2H)-yl)cyclopentyl)-2',4'-dichlorobiphenyl-3-sulfonamide] the pEC50 was 6.28.

In the case of `Nc1nc(=O)n([C@H]2CC[C@H](NS(=O)(=O)c3ccc(-c4ccccc4)cc3)C2)cc1F` [N-((1S,3S)-3-(4-amino-5-fluoro-2-oxopyrimidin-1(2H)-yl)cyclopentyl)biphenyl-4-sulfonamide], the pEC50 was 5.26.

Molecule `COc1ccc(-c2cccc(C(=O)N[C@H]3CC[C@H](n4cc(F)c(N)nc4=O)C3)c2)cc1` [N-((1S,3S)-3-(4-amino-5-fluoro-2-oxopyrimidin-1(2H)-yl)cyclopentyl)-4'-methoxybiphenyl-3-carboxamide] has a pEC50 of 7.00.

`Nc1nc(=O)n([C@H]2CC[C@H](NS(=O)(=O)c3cccc(-c4ccccc4)c3)C2)cc1F` [N-((1S,3S)-3-(4-amino-5-fluoro-2-oxopyrimidin-1(2H)-yl)cyclopentyl)biphenyl-3-sulfonamide] gave a pEC50 of 6.22.

Work on `Nc1nc(=O)n([C@H]2CC[C@H](NC(=O)c3cccc(-c4ccccc4)c3)C2)cc1F` [N-((1S,3S)-3-(4-amino-5-fluoro-2-oxopyrimidin-1(2H)-yl)cyclopentyl)biphenyl-3-carboxamide] yielded a pEC50 of 6.04.

Work on `Nc1nc(=O)n([C@H]2CC[C@H](NS(=O)(=O)c3ccccc3)C2)cc1F` [N-((1S,3S)-3-(4-amino-5-fluoro-2-oxopyrimidin-1(2H)-yl)cyclopentyl)benzenesulfonamide] yielded a pEC50 of 4.77.

With `Nc1nc(=O)n([C@H]2CC[C@H](NS(=O)(=O)c3cccc(-c4cccc(Cl)c4)c3)C2)cc1F` [N-((1S,3S)-3-(4-amino-5-fluoro-2-oxopyrimidin-1(2H)-yl)cyclopentyl)-3'-chlorobiphenyl-3-sulfonamide] the pEC50 was 6.44.

From BindingDB's records for doi:10.1016/j.bmcl.2009.09.081 (Lexicon Pharmaceuticals, 2009)
